Source: PubChem BioAssay AID2060350 (Molecular Pharmacology Branch, DTP, NCI, 2025)

Tested on: PDC 521955-158-R6-J3 spheroids, viability
Test: Anticancer human tumor 521955-158-R6-J3-PDC patient-derived pancreatic carcinoma cell line growth inhibition [TAK]
Conditions: spheroids with HUVEC and MSC; for IC50: curve of first compound; for viability, T/C: stronger effect = lower value; active = viability on the fitted dose curve at most 10% of control; inactive = the rest
From the text: Combinatorial screen of targeted agents with TAK-243 and ipatasertib in multi-cell type tumor spheroids
A high-throughput screen of multi-cell type tumor spheroids was designed to identify active combinations of targeted small molecules and TAK-243 or ipatasertib. Complex spheroids include a stromal component modeled by human endothelial cells (HUVEC) and fibroblasts modeled by human mesenchymal stem cells (MSCs). The concentration ranges selected for each drug and investigational agent were based upon clinically achievable concentrations if the clinical Cmax of the agent was known.
Compounds. The drugs and investigational agents: TAK-243 (785004), ipatasertib (767898), everolimus (733504), selumetinib (741078), bortezomib (756655), trametinib (758246), ixazomib (758254), vemurafenib (761431), dabrafenib (764134), sapanisertib (764658), alpelisib (765974), and copanlisib (816437), were obtained from the National Cancer Institute (NCI) Developmental Therapeutics Program Chemical Repository. The FDA-approved anticancer drug set is available from the NCI Developmental Therapeutics Program. […] The stock solutions were prepared in dimethyl sulfoxide (DMSO, Sigma-Aldrich, St. Louis, MO, cat. D2650) at 800-fold the tested concentration and stored at -70 degrees C prior to their use. All drugs and investigational agents were tested over a range starting from a high concentration at or near the clinical Cmax and decreasing in half-log increments. If the clinical Cmax for an agent had not been determined, the highest concentration tested was 10 microM.
NCI60 Cell Culture. NCI60 cell lines were obtained from the NCI Developmental Therapeutics Program Tumor Repository. For each lot of cells, the Repository performed Applied Biosystems AmpFLSTR Identifiler testing with PCR amplification to confirm consistency with the published Identifier STR profile for each cell line. Cells were kept in continuous culture for no more than 20 passages. The optimal seeding densities for each of the cell lines at each time point assessed were determined prior to performing the concentration response studies. Briefly, the NCI60 human tumor lines were grown as monolayers in RPMI 1640 medium supplemented with 10% FBS and 2 mmol/L L-glutamine.
An additional 2 lines were from the NCI60 cell line panel including melanomas, MALME-3M and SK-MEL-2. Pooled donor human umbilical vein endothelial cells (HUVEC, Lonza, cat. CC-2519) and human mesenchymal stem cells (hMSC, Lonza, cat. PT-2501) were purchased from Lonza (Walkersville, MD).
PDMR cell lines were grown in complete medium (DC medium): Dulbecco's modified Eagle's medium (DMEM)/F12 supplemented with 5% fetal bovine serum (FBS), 2 mM L-glutamine, 100 U/mL penicillin and 100 µg/ml streptomycin, 0.4 µg/ml hydrocortisone, 10 ng/ml epidermal growth factor (EGF) recombinant human protein, 24 µg/mL adenine, and 0.1 mg/mL primocin. During culture from frozen stock vials, PDMR cells were cultured in the same medium containing 10 µM Y-27632 (see Table 3). The PDCs were cultured in complete DMEM/F12 media without 10 microM Y-27632 dihydrochloride for at least two passages prior to the screen. The pooled donor HUVEC and hMSC were cultured in endothelial cell growth medium 2 (PromoCell, Heidelberg, Germany, cat. C-22011) and mesenchymal stem cell growth medium 2 (PromoCell, cat. C-28009), respectively. For all experiments, HUVEC and hMSC were used at passages </=5.
For the pre-screen, cell seeding densities were determined from a titration spanning the range from 5,000 to 313 cells per well. The mct-spheroids including 60% malignant cells, 25% HUVEC and 15% MSC dispensed as a mixture into U-bottom Ultra-Low Attachment 384-well plates (Corning, NY)
High-throughput Drug Combination Screening.
Prior to their inoculation into 384-well plates, malignant cells, HUVEC, and hMSC were removed from T flasks using TrypLE express (Thermo Fisher Scientific, cat. 12605036) and harvested by centrifugation for 5 min at 233 x g. […]
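Also: spheroids exposed to drugs for 7 days before readout.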

COC1CC2CCC(C)C(O)(O2)C(=O)C(=O)N2CCCCC2C(=O)OC(C(C)CC2CCC(OCCO)C(OC)C2)CC(=O)C(C)C=C(C)C(O)C(OC)C(=O)C(C)CC(C)C=CC=CC=C1C (stereo not given) + CC(C)NCC(C(=O)N1CCN(c2ncnc3c2C(C)CC3O)CC1)c1ccc(Cl)cc1
inactive: viability, T/C (second compound 0.3 µM, first compound 0.000316 µM) 98.5% | viability, T/C (second compound 0.3 µM, first compound 0.001 µM) 93% | viability, T/C (second compound 0.3 µM, first compound 0.00316 µM) 97% | viability, T/C (second compound 0.3 µM, first compound 0.01 µM) 96.4% | viability, T/C (second compound 0.3 µM, first compound 0.0316 µM) 102% | viability, T/C (second compound 0.3 µM, first compound 0.1 µM) 81.1% | viability, T/C (second compound 0.949 µM, first compound 0.000316 µM) 95.8% | viability, T/C (second compound 0.949 µM, first compound 0.001 µM) 89.6% | viability, T/C (second compound 0.949 µM, first compound 0.00316 µM) 99.1% | viability, T/C (second compound 0.949 µM, first compound 0.01 µM) 102% | viability, T/C (second compound 0.949 µM, first compound 0.0316 µM) 91.3% | viability, T/C (second compound 0.949 µM, first compound 0.1 µM) 78% | viability, T/C (second compound 3 µM, first compound 0.000316 µM) 96.5% | viability, T/C (second compound 3 µM, first compound 0.001 µM) 78.3% | viability, T/C (second compound 3 µM, first compound 0.00316 µM) 85.8% | viability, T/C (second compound 3 µM, first compound 0.01 µM) 89.1% | viability, T/C (second compound 3 µM, first compound 0.0316 µM) 73.7% | viability, T/C (second compound 3 µM, first compound 0.1 µM) 63.3% | viability, T/C (second compound 9.49 µM, first compound 0.000316 µM) 86.2% | viability, T/C (second compound 9.49 µM, first compound 0.001 µM) 67.7% | viability, T/C (second compound 9.49 µM, first compound 0.00316 µM) 65% | viability, T/C (second compound 9.49 µM, first compound 0.01 µM) 74.8% | viability, T/C (second compound 9.49 µM, first compound 0.0316 µM) 76.8% | viability, T/C (second compound 9.49 µM, first compound 0.1 µM) 58.4% | viability, T/C (second compound 30 µM, first compound 0.000316 µM) 81.8% | viability, T/C (second compound 30 µM, first compound 0.001 µM) 59.6% | viability, T/C (second compound 30 µM, first compound 0.00316 µM) 55.9% | viability, T/C (second compound 30 µM, first compound 0.01 µM) 62.8% | viability, T/C (second compound 30 µM, first compound 0.0316 µM) 56% | viability, T/C (second compound 30 µM, first compound 0.1 µM) 48.4%
> 100 nM: IC50 (second compound 0.3 µM) | IC50 (second compound 0.949 µM) | IC50 (second compound 3 µM) | IC50 (second compound 9.49 µM) | IC50 (second compound 30 µM)
